Molecules are shown by their SMILES.

The target in the first assay is recombinant human Mcl-1 (Mcl-1/Bim interaction) (Homo sapiens (Human), UniProt Q07820). Briefly: biochemical. In kind it is binding. The settings on record: cell free Mcl-1:Bim TR-FRET; read-out: Mcl-1 HTRF IC50. For orientation: In TR-FRET formats the signal depends on donor and acceptor labels being close together.
Chain of recombinant human Mcl-1 (Mcl-1/Bim interaction) (Q07820 171-327): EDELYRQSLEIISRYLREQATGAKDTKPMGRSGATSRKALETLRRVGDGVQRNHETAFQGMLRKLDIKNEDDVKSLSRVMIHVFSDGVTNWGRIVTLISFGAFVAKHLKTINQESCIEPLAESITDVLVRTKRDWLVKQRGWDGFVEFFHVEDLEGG
Description: Cell free Mcl-1:Bim Affinity Assay (Mcl-1 HTRF)
The inhibition of the Mcl-1/Bim interaction was measured using a time-resolved fluorescence resonance energy transfer (TR-FRET) assay. The recombinant human Mcl-1 (C-terminally 6×His tagged Mcl-1 containing residues 171-327) was generated at Amgen Inc (Thousand Oaks, Calif.). A biotinylated peptide derived from human Bim (residues 51-76) was purchased from CPC Scientific (San Jose, Calif.). The TR-FRET assay was conducted in a 384-well white OptiPlate™ (PerkinElmer, Waltham, Mass.) in a total volume of 40 μL. The reaction mixture contained 0.1 nM Mcl-1(171-327), 0.05 nM biotin-Bim(51-76), 0.05 nM LANCE® Eu-W1024 Anti-6×His (PerkinElmer), 0.072 nM Streptavidin-Xlent (Cisbio, Bedford, Mass.), and serially diluted test compounds in the binding buffer of 20 mM Hepes, pH 7.5, 150 mM NaCl, 0.016 mM Brij® 35, and 1 mM dithiothreitol. Test compounds were pre-incubated with Mcl-1(171-327) and biotin-Bim (51-76) for 60 min before addition of the detection mixture (LANCE® Eu-W1024 Anti-6×His and Streptavidin-Xlent). The reaction plates were further incubated overnight and then were read on an Envision® multimode reader (PerkinElmer). Fluorescence signals were measured at 620 nm (40-nm bandwidth) and 665 nm (7.5-nm bandwidth) with a 60 μs delay after excitation at 320 nm (75-nm bandwidth). The signal ratio at 665/620 nm corresponded to the Mcl-1/Bim interaction and was used in all data analyses. The IC50 values of test compounds were determined from duplicate data by analyzing competition curves using a four-parameter sigmoidal model in GraphPad Prism (GraphPad Software, San Diego, Calif.) or in Genedata Screener® (Genedata, Basel, Switzerland).
For the molecule `CO[C@@]1(CN2CCN3CCN(C(C)=O)C[C@@H]3C2)/C=C/C[C@H](C)[C@@H](C)S(=O)(=O)NC(=O)c2ccc3c(c2)N(C[C@@H]2CC[C@H]21)C[C@@]1(CCCc2cc(Cl)ccc21)CO3` (single isomer, unassigned) [Example 225], the IC50 was determined as 0.087 nM. For the molecule `CO[C@@]1(CN2CCN3CCN(C(C)=O)C[C@@H]3C2)/C=C/C[C@H](C)[C@@H](C)S(=O)(=O)NC(=O)c2ccc3c(c2)N(C[C@@H]2CC[C@H]21)C[C@@]1(CCCc2cc(Cl)ccc21)CO3` (single isomer, unassigned) [Example 226], the IC50 was determined as 0.057 nM. The same measure, in the same setting: the figure for `CO[C@]1(CN2CCN3CCN(C(C)=O)C[C@@H]3C2)/C=C/C[C@H](C)[C@@H](C)S(=O)(=O)NC(=O)c2ccc3c(c2)N(C[C@@H]2CC[C@H]21)C[C@@]1(CCCc2cc(Cl)ccc21)CO3` (single isomer, unassigned) [Example 229] is 0.619 nM. Consider `CO[C@]1(CN2CCN3CCN(C(C)=O)C[C@@H]3C2)/C=C/C[C@H](C)[C@@H](C)S(=O)(=O)NC(=O)c2ccc3c(c2)N(C[C@@H]2CC[C@H]21)C[C@@]1(CCCc2cc(Cl)ccc21)CO3` (single isomer, unassigned) [Example 230], for which the IC50 is 0.051 nM. Consider `C[C@@H]1[C@@H](C)C/C=C/C(O)(CN2CCN3CCCC[C@@H]3C2)[C@@H]2CC[C@H]2CN2C[C@@]3(CCCc4cc(Cl)ccc43)COc3ccc(cc32)C(=O)NS1(=O)=O` (single isomer, unassigned) [Example 242], for which the half-maximal inhibitory concentration (IC50) is 0.249 nM. The same measure, in the same setting: the figure for `C[C@@H]1[C@@H](C)C/C=C/C(O)(CN2CCN3CCCC[C@@H]3C2)[C@@H]2CC[C@H]2CN2C[C@@]3(CCCc4cc(Cl)ccc43)COc3ccc(cc32)C(=O)NS1(=O)=O` (single isomer, unassigned) [Example 243] is 0.078 nM; for `CO[C@@]1(CN2CCN3CCN(C(C)=O)C[C@@H]3C2)/C=C/C[C@H](C)[C@@H](C)S(=O)(=O)NC(=O)c2ccc3c(c2)N(C[C@@H]2CC[C@H]21)C[C@@]1(CCCc2cc(Cl)ccc21)CO3` (stereo in doubt) [Example 214] it is 0.071 nM. On the same count and under the same terms, as for `CO[C@]1(CN2CCN3CCS(=O)(=O)C[C@@H]3C2)/C=C/C[C@H](C)[C@@H](C)S(=O)(=O)NC(=O)c2ccc3c(c2)N(C[C@@H]2CC[C@H]21)C[C@@]1(CCCc2cc(Cl)ccc21)CO3` (stereo in doubt) [Example 215], the figure is 0.149 nM; as for `CO[C@]1(CN2CCN3CCS(=O)(=O)C[C@@H]3C2)/C=C/C[C@H](C)[C@@H](C)S(=O)(=O)NC(=O)c2ccc3c(c2)N(C[C@@H]2CC[C@H]21)C[C@@]1(CCCc2cc(Cl)ccc21)CO3` (stereo in doubt) [Example 219], 0.073 nM.

Take `CO[C@@]1(CN2CCN3CCN(S(C)(=O)=O)C[C@@H]3C2)/C=C/C[C@H](C)[C@@H](C)S(=O)(=O)NC(=O)c2ccc3c(c2)N(C[C@@H]2CC[C@H]21)C[C@@]1(CCCc2cc(Cl)ccc21)CO3` (stereo in doubt) [Example 228]: the IC50 is 0.2 nM. Same read-out and setting: the figure for `CCO[C@]1(CN2CCN(C(C)(C)C)CC2)/C=C/C[C@H](C)[C@@H](C)S(=O)(=O)NC(=O)c2ccc3c(c2)N(C[C@@H]2CC[C@H]21)C[C@@]1(CCCc2cc(Cl)ccc21)CO3` [Example 6, (1S,3′R,6′R,7′R,8′E,11′S,12′R)-7′-((4-tert-butyl-1-piperazinyl)methyl)-6-chloro-7′-ethoxy-11′,12′-dimethyl-3,4-dihydro-2H,15′H-spiro[naphthalene-1,22′-[20]oxa[13]thia[1,14]diazatetracyclo[14.7.2.0˜3,6˜.0˜19,24˜]pentacosa[8,16,18,24]tetraen]-15′-one 13′,13′-dioxide] is 0.079 nM.

`COCC[C@@H]1[C@@H](C)C/C=C/[C@@](CN2CCN(C(C)C)[C@H](C)C2)(OC)[C@@H]2CC[C@H]2CN2C[C@@]3(CCCc4cc(Cl)ccc43)COc3ccc(cc32)C(=O)NS1(=O)=O` [Example 12, (1S,3′R,6′R,7′R,8′E,11′S,12′R)-6-chloro-7′-methoxy-12′-(2-methoxyethyl)-11′-methyl-7′-(((3R)-3-methyl-4-(1-methylethyl)-1-piperazinyl)methyl)-3,4-dihydro-2H,15′H-spiro[naphthalene-1,22′-[20]oxa[13]thia[1,14]diazatetracyclo[14.7.2.0˜3,6˜.0˜19,24˜]pentacosa[8,16,18,24]tetraen]-15′-one 13′,13′-dioxide]: the IC50 was determined as 0.072 nM.

In the case of `CCO[C@]1(CN2CCN3CCCC[C@@H]3C2)/C=C/C[C@H](C)[C@@H](CCOC)S(=O)(=O)NC(=O)c2ccc3c(c2)N(C[C@@H]2CC[C@H]21)C[C@@]1(CCCc2cc(Cl)ccc21)CO3` [Example 15, (1S,3′R,6′R,7′R,8′E,11′S,12′R)-6-chloro-7′-ethoxy-12′-(2-methoxyethyl)-11′-methyl-7′-((9aR)-octahydro-2H-pyrido[1,2-a]pyrazin-2-ylmethyl)-3,4-dihydro-2H,15′H-spiro[naphthalene-1,22′-[20]oxa[13]thia[1,14]diazatetracyclo[14.7.2.0˜3,6˜.0˜19,24˜]pentacosa[8,16,18,24]tetraen]-15′-one 13′,13′-dioxide], the IC50 is 0.119 nM. In the case of `CCO[C@]1(CN2CCN(C(C)C)CC2)/C=C/C[C@H](C)[C@@H](CCOC)S(=O)(=O)NC(=O)c2ccc3c(c2)N(C[C@@H]2CC[C@H]21)C[C@@]1(CCCc2cc(Cl)ccc21)CO3` [Example 16, (1S,3′R,6′R,7′R,8′E,11′S,12′R)-6-chloro-7′-ethoxy-12′-(2-methoxyethyl)-11′-methyl-7′-((4-(1-methylethyl)-1-piperazinyl)methyl)-3,4-dihydro-2H,15′H-spiro[naphthalene-1,22′-[20]oxa[13]thia[1,14]diazatetracyclo[14.7.2.0˜3,6˜.0˜19,24˜]pentacosa[8,16,18,24]tetraen]-15′-one 13′,13′-dioxide], the IC50 was 0.065 nM.

In the case of `CO[C@@]1(CN2CCN(C3COC3)CC2)/C=C/C[C@H](C)[C@@H](C)S(=O)(=O)NC(=O)c2ccc3c(n2)N(C[C@@H]2CC[C@H]21)C[C@@]1(CCCc2cc(Cl)ccc21)CO3` [Example 19, (1S,3′R,6′R,7′S,8′E,11′S,12′R)-6-chloro-7′-methoxy-11′,12′-dimethyl-7′-((4-(3-oxetanyl)-1-piperazinyl)methyl)-3,4-dihydro-2H,15′H-spiro[naphthalene-1,22′-[20]oxa[13]thia[1,14,25]triazatetracyclo[14.7.2.0˜3,6˜.0˜19,24˜]pentacosa[8,16,18,24]tetraen]-15′-one 13′,13′-dioxide], the IC50 came to 0.125 nM. Same read-out and setting: as for `CC[C@@H]1CC/C=C/[C@@](CN2CCN3CCCC[C@@H]3C2)(OC)[C@@H]2CC[C@H]2CN2C[C@@]3(CCCc4cc(Cl)ccc43)COc3ccc(cc32)C(=O)N(C)S1(=O)=O` [Example 33, (1S,3′R,6′R,7′R,8′E,12′R)-6-chloro-12′-ethyl-7′-methoxy-14′-methyl-7′-((9aR)-octahydro-2H-pyrido[1,2-a]pyrazin-2-ylmethyl)-3,4-dihydro-2H,15′H-spiro[naphthalene-1,22′-[20]oxa[13]thia[1,14]diazatetracyclo[14.7.2.0˜3,6˜.0˜19,24˜]pentacosa[8,16,18,24]tetraen]-15′-one 13′,13′-dioxide], the figure is 8.25 nM.

On to `C[C@@H]1[C@@H](C)C/C=C/[C@@](O)(CN2CCOC[C@@H]2Cn2ccnc2)[C@@H]2CC[C@H]2CN2C[C@@]3(CCCc4cc(Cl)ccc43)COc3ccc(cc32)C(=O)NS1(=O)=O` [Example 100, (1S,3′R,6′R,7′S,8′E,11′S,12′R)-6-chloro-7′-hydroxy-7′-(((3S)-3-(1H-imidazol-1-ylmethyl)-4-morpholinyl)methyl)-11′,12′-dimethyl-3,4-dihydro-2H,15′H-spiro[naphthalene-1,22′-[20]oxa[13]thia[1,14]diazatetracyclo[14.7.2.0˜3,6˜.0˜19,24˜]pentacosa[8,16,18,24]tetraen]-15′-one 13′,13′-dioxide], for which the IC50 is 0.188 nM. The same measure, in the same setting: as for `C[C@@H]1[C@@H](C)C/C=C/[C@@](O)(CNC(C)(C)C)[C@@H]2CC[C@H]2CN2C[C@@]3(CCCc4cc(Cl)ccc43)COc3ccc(cc32)C(=O)NS1(=O)=O` [Example 125, (1S,3′R,6′R,7′S,8′E,11′S,12′R)-7′-((tert-butylamino)methyl)-6-chloro-7′-hydroxy-11′,12′-dimethyl-3,4-dihydro-2H,15′H-spiro[naphthalene-1,22′-[20]oxa[13]thia[1,14]diazatetracyclo[14.7.2.0˜3,6˜.0˜19,24˜]pentacosa[8,16,18,24]tetraen]-15′-one 13′,13′-dioxide], the figure is 6.1 nM.

A further assay has as its system OPM-2 human multiple myeloma cell line. Briefly: Cell Viability Assay (OPM-2 10 FBS), CellTiter-Glo. In kind it is cell-based. The settings on record: Homo sapiens, OPM-2, 16 h, read-out: OPM-2 10% FBS IC50 IP (μM), OPM-2 cells, 10% FBS, 16 h, CellTiter-Glo. As to the method:
Cell Viability Assay (OPM-2 10 FBS)
The human multiple myeloma cell line, OPM-2, was cultured in complete growth medium containing RPMI 1640 and 10% fetal bovine serum (FBS). Cells were seeded into 384-well plates at 3000 cells/well density in complete growth medium containing 10% FBS, and incubated for 16 h with serially diluted test compounds in a 37° C. incubator with 5% CO2. Cell viability was tested using CellTiter-Glo® assay (Promega, Madison, Wis.) according to the manufacturer recommendations. Luminescence was determined using an EnVision® Multilabel plate reader 25 min after the addition of detection reagent. IC50 values were then calculated with Xlfit using a logistical 4-parameter fit model in GraphPad Prism (GraphPad Software, San Diego, Calif.) or in Genedata Screener® (Genedata, Basel, Switzerland).
Take `CCCO[C@]1(CN2CCN3CCCC[C@@H]3C2)/C=C/C[C@H](C)[C@@H](C)S(=O)(=O)NC(=O)c2ccc3c(c2)N(C[C@@H]2CC[C@H]21)C[C@@]1(CCCc2cc(Cl)ccc21)CO3` [Example 353, (1S,3′R,6′R,7′R,8′E,11′S,12′R)-6-chloro-11′,12′-dimethyl-7′-((9aR)-octahydro-2H-pyrido[1,2-a]pyrazin-2-ylmethyl)-7′-propoxy-3,4-dihydro-2H,15′H-spiro[naphthalene-1,22′-[20]oxa[13]thia[1,14]diazatetracyclo [14.7.2.0~3,6~.0~19,24~]pentacosa[8,16,18,24]tetraen]-15′-one 13′,13′-dioxide]: the IC50 came to 0.186 µM.

The term IC50 denotes the point on the concentration scale where inhibition reaches its midpoint.
